Assay [1] has as its system axons of dorsal root ganglia explants. Kind of assay: Wallerian degeneration assay of axon in mouse DRG explant culture. It counts as cell-based, C57BL/6 mice. The note with it: 10 µM compound, 2 h pretreatment, 24 h post axonal transection. As to the method:
Dorsal root ganglia were dissected from two-month-old male C57BL/6 mice and placed into a 35-mm culture dish containing ice-cold HBSS buffer. Extra tissue surrounding each dorsal ganglion was removed using a scalpel, and the ganglia were cut into 2-3 explant pieces. These explants were seeded into wells of a 96-well plate pre-coated with 100 ng/mL Matrigel (Corning), added with 100 µL of DRG medium (Neurobasal medium (Gibco) containing 2% B-27 (Gibco), 1% GlutaMAX (Gibco) and 10 ng/mL NGF (MCE)), and cultured in a 37°C incubator for one week. The medium was half- replaced on the fourth day and the experiments were counted on the eighth day.
Refer to methods reported in literatures in the related art (Gerdts J, Sasaki Y, Vohra B, Marasa J, Milbrandt J. Image-based screening identifies novel roles for IkappaB kinase and glycogen synthase kinase 3 in axonal degeneration. J Biol Chem. 2011 Aug 12;286(32):28011-8) for the definition and measurement principle of the degeneration index of axon. In the present disclosure, the measurement method is detaild below.
0.1 µL of 10 mM compound to be tested was added to 100 µL of DRG medium to prepare a new medium containing 10 µM compound to be tested. The medium in the 96-well plate was removed and replaced with the new medium containing the compound to be tested. Explant pieces of dorsal ganglia were incubated with compounds in a 37°C incubator for 2 h of pre-protection. Following this 2-hour pretreatment, axons were transcted near the explants tissue piece using a glass microelectrode. At 0 h and 24 h post axonal transection, brightfield images of axons in the same region were captured using a microscope (Olympus) with 20× objective. Axonal integrity was assessed using an in-house developed script. The results were categorized based on the degree of protection into: (A) >50% and (B) 20-50%.

In the next assay the target is T1, SARM1 (Homo sapiens, UniProt Q6SZW1).
T1 construct: the inventor produces full-length SARM1 for NADase activity assays and for screening; His (C); made in house; host or cells: HEK293 cells (transient transfection; digitonin lysate supernatant, not purified further)
T1 sequence (Q6SZW1 28-724): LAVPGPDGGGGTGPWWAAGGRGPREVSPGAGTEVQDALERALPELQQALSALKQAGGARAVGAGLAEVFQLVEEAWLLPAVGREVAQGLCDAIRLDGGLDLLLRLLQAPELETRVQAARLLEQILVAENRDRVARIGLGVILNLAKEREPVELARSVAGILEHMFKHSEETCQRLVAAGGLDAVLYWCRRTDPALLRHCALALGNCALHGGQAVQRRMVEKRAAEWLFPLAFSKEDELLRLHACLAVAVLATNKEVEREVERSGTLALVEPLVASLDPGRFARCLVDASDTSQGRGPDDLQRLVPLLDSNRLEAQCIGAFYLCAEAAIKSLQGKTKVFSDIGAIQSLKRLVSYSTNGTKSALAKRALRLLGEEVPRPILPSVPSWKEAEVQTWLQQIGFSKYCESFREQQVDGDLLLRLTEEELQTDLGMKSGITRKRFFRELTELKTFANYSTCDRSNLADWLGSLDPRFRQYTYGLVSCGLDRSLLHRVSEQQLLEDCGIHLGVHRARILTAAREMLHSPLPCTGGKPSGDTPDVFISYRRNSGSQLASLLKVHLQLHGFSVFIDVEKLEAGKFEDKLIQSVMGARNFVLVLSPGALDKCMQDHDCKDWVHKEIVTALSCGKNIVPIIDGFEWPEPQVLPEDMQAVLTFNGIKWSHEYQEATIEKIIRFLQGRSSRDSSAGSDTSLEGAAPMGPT
Kind of assay: In vitro biochemical assay for inhibiting SARM1 enzymatic activity (PC6 fluorescence, NAD substrate, NMN activator). The note with it: 0.05 µg/mL SARM1, 50 µM NAD, 50 µM PC6, 50 µM NMN, 10 min pre-incubation, 30 min at room temperature. On the procedure:
Compounds to be tested were stocked at 200 µM or 10 mM (in DMSO), and further diluted to the desired compound concentration for the in vitro SARM1 enzyme assay and inhibitor screening.
The gene sequence encoding SARM1 protein was amplified by PCR and the PCR amplification product was constructed into the pcDNA3.1-HIS-C plasmid. This construction was completed by YouBio Biological Technology (Hunan, China).
HEK293 cells were cultured in DMEM in a 10 cm dish. The next day, cells were transfected with 15 µg of the pcDNA3.1-SARM1-HIS-C expression plasmid.
Cells were harvested 48 hours after the transfection. The SARM1 protein expressed in cells was obtained through cell lysis by digitonin, which was used for in vitro activity assay. The specific process was as follows:
Cells were digested and detached from the dish using trypsin-EDTA, centrifuged at 1000 rpm for 5 minutes, washed once with PBS, then resuspended in PBS containing 100 µM digitonin at 0.6 mL PBS for the cells in 10 cm dish and lysed for 5 min. The cells were added with trypan blue and observed under a microscope. More than 90% of the cells were confirmed to be lysed. The cells were centrifuged at 5000 rpm for 10 min, and the supernatant containing SARM1 protein was collected.
The compound was added into a solution of 50 mM Tris-HCl (pH 7.5) containing 0.05 µg/mL SARM1 to achieve a concentration of 200 µM, and then serially diluted 6 times, where each dilution was carried out by taking half of the previous solution and adding an equal volume of 50 mM Tris-HCl (pH 7.5) containing 0.05 µg/mL SARM1, yielding a set of final concentrations of the compound of either 200, 100, 50, 25, 12.5, 6.25 and 3.125 µM, or 200, 50, 12.5, 3.125, 0.78, 0.195 and 0.049 µM. No inhibitor was added in the control group. All mixtures were incubated at room temperature for 10 min.
Subsequently, 50 µM NAD, 50 µM PC6 as substrate and 50 µM NMN as activator were added to the SARM1 protein incubated with the inhibitor and reacted for 30 min at room temperature. Wherein, the aforementioned concentrations of each component represent their respective final concentrations in the reaction system
During the reaction, the fluorescence spectrum dynamics of PC6 was detected by a microplate reader, with excitation and emission wavelengths set at 390 nm and 520 nm, respectively. The activity of the protein was expressed as the reaction rate and half maximal inhibitory concentration was calculated. The higher the reaction rate, the stronger the protein activity, and the lower the inhibitory efficiency of the compound.
Dose-response curves for inhibition of SARM1 enzymatic activity for NAD by the compounds were plotted using the above method.

Structures are written as SMILES. pIC50: −log10 of the molar value.

With `[2H]C(c1ccc(Cl)cc1)C1([2H])CCN(c2ccc(-c3ccncc3)cc2)C1=O` (centres unmarked) [Compound 80, 3-((4-chlorophenyl)methyl-deutero)-1-(4-(pyridin-4-yl)phenyl)-3-deutero-pyrrolidin-2-one], the “Degree of protection against axonal Wallerian Degeneration” value (“Degree of protection” for short) in assay [1] was “B ((B) 20-50%)”. In addition, the pIC50 at SARM1 is 5.00 to 6.00.

As to `O=C1C(Cc2ccc(Cl)cc2)CCN1c1ccc(-c2ccncc2)nc1` (centres unmarked) [Compound 7], the “Degree of protection” value in assay [1] is given as “A ((A) >50%)”. For the same compound, the pIC50 against SARM1 is 5.00 to 6.00.

As for `O=C1C(Cc2cc(F)c(F)c(F)c2)CCN1c1ccc(-c2ccncc2)cc1` (centres unmarked) [Compound 72], the “Degree of protection” value in assay [1] is on record as “A ((A) >50%)”. The pIC50 on SARM1 was > 6.00.

Take `O=C1C(Cc2ccccc2)CCN1c1ccc(-c2ccncc2)cc1` (centres unmarked) [Compound 24, 3-benzyl-1-(4-(pyridin-4-yl)phenyl)pyrrolidin-2-one]: the “Degree of protection” value in assay [1] is reported as “B ((B) 20-50%)”. Further, at SARM1, the pIC50 was 5.00 to 6.00.

Regarding `[2H]C1(Cc2ccc(F)c(F)c2)CCN(c2ccc(-c3ccncc3)cc2)C1=O` (centres unmarked) [Compound 83, 3-(3,4-difluorobenzyl)-1-(4-(pyridin-4-yl)phenyl)-3-deutero-pyrrolidin-2-one], the “Degree of protection” value in assay [1] is on record as “A ((A) >50%)”. For the same compound, the pIC50 against SARM1 is > 6.00.

`O=C1C(Cc2ccc(Cl)cc2)CCN1c1cnc(-c2ccncc2)cn1` (centres unmarked) [Compound 20, 3-(4-chlorobenzyl)-1-(5-(pyridin-4-yl)pyrazin-2-yl)pyrrolidin-2-one]: the “Degree of protection” value in assay [1] is “B ((B) 20-50%)”. Besides, the pIC50 against SARM1 was > 6.00.

Consider `O=C1C(Cc2ccc(F)cc2F)CCN1c1ccc(-c2ccncc2)cc1` (centres unmarked) [Compound 41, 3-(2,4-difluorobenzyl)-1-(4-(pyridin-4-yl)phenyl)pyrrolidin-2-one], for which the “Degree of protection” value in assay [1] was “B ((B) 20-50%)”. Further, at SARM1, the pIC50 is 5.00 to 6.00.

`O=C1C(Cc2ccc(Cl)cc2)CCN1c1ccc(-c2ccncc2)cc1` (centres unmarked) [Compound 1, 3-(4-chlorobenzyl)-1-(4-(pyridin-4-yl)phenyl)pyrrolidin-2-one]: the “Degree of protection” value in assay [1] was “A ((A) >50%)”. For the same compound, the pIC50 on SARM1 was > 6.00.

Turning to `O=C1[C@H](Cc2ccc(F)c(F)c2)CCN1c1ccc(-c2ccncc2)cc1` (single isomer, unassigned) [Compound 82], in assay [1], the “Degree of protection” value is recorded as “A ((A) >50%)”. In addition, the pIC50 against SARM1 was > 6.00.

`O=C1C(Cc2ccc(Cl)cc2)CCN1c1ccc(-c2ccncc2F)nn1` (centres unmarked) [Compound 75, 3-(4-chlorobenzyl)-1-(6-(3-fluoropyridin-4-yl)pyridazin-3-yl)pyrrolidin-2-one]: the “Degree of protection” value in assay [1] is “A ((A) >50%)”. Also, the pIC50 against SARM1 is > 6.00.

Consider `O=C1C(Cc2ccc(F)cc2)CCN1c1ccc(-c2ccncc2)nn1` (centres unmarked) [Compound 55, 3-(4-fluorobenzyl)-1-(6-(pyridin-4-yl)pyridazin-3-yl)pyrrolidin-2-one], for which the “Degree of protection” value in assay [1] is “B ((B) 20-50%)”. In addition, the pIC50 against SARM1 is > 6.00.

Regarding `O=C1C(Cc2ccc(Cl)s2)CCN1c1ccc(-c2ccncc2)cc1` (centres unmarked) [Compound 29, 3-((5-chlorothiophen-2-yl)methyl)-1-(4-(pyridin-4-yl)phenyl)pyrrolidin-2-one], the “Degree of protection” value in assay [1] was “A ((A) >50%)”. In addition, the pIC50 on SARM1 is > 6.00.

For `S=C1C(Cc2ccc(Cl)cc2)CCN1c1ccc(-c2ccncc2)nn1` (centres unmarked) [Compound 58, 3-(4-chlorobenzyl)-1-(6-(pyridin-4-yl)pyridazin-3-yl)pyrrolidin-2-thione], the “Degree of protection” value in assay [1] was “B ((B) 20-50%)”. The pIC50 on SARM1 is > 6.00.

Take `O=C1C(Cc2ccc(F)c(F)c2)CCN1c1ccc(-c2ccncc2)cc1` (racemic) [Compound 30, 3-(3,4-difluorobenzyl)-1-(4-(pyridin-4-yl)phenyl)pyrrolidin-2-one]: in assay [1], the “Degree of protection” value is listed as “A ((A) >50%)”. For the same compound, the pIC50 against SARM1 was > 6.00.

With `O=C1C(Cc2ccc(Cl)cc2F)CCN1c1ccc(-c2ccncc2)nn1` (centres unmarked) [Compound 69], in assay [1], the “Degree of protection” value is “B ((B) 20-50%)”. In addition, the pIC50 against SARM1 is > 6.00.

For the compound `O=C1[C@H](Cc2ccc(F)c(F)c2)CCN1c1ccc(-c2ccncc2)cc1` (single isomer, unassigned) [Compound 81], the “Degree of protection” value in assay [1] was “A ((A) >50%)”. The pIC50 on SARM1 is > 6.00.

In the case of `O=C1C(Cc2ccc(Cl)nc2)CCN1c1ccc(-c2ccncc2)nn1` (centres unmarked) [Compound 64], the “Degree of protection” value in assay [1] is listed as “A ((A) >50%)”. The pIC50 on SARM1 was > 6.00.

Take `O=C1C(Cc2ccc(F)c(F)c2)CCN1c1ccc(-c2ccncc2)nn1` (centres unmarked) [Compound 67]: the “Degree of protection” value in assay [1] was “A ((A) >50%)”. The pIC50 against SARM1 was > 6.00.

On to `O=C1C(Cc2cc(F)c(F)c(F)c2)CCN1c1ccc(-c2ccncc2)nn1` (centres unmarked) [Compound 71], for which the “Degree of protection” value in assay [1] is recorded as “A ((A) >50%)”. The pIC50 against SARM1 was > 6.00.

These data come from patent EP4737448A1, “SARM1 ENZYME ACTIVITY INHIBITOR AND USE THEREOF” (Artivila (ShenZhen) Innovation Center, Ltd., priority 2023, dated 2025).
